According to patent US9006225B2, “Stable pharmaceutical composition” (Asahi Kasei Pharma Corporation, priority 2008, dated 2015):

What was measured:
Assay type in all cases: physicochemical
[1] = Coloring of compound solutions with glucose after storage (Experimental Example 4); parameters: key: −: No coloring; +: Coloring; ++: Marked coloring; conditions: for Degree of coloring, Sample solution after storage at 60° C. for 6 days: 10 mg compound in methanol 2 mL + 1 mL glucose aqueous solution 10 mg/mL; for Degree of coloring, Control solution after storage at 60° C. for 6 days: 10 mg compound in methanol 2 mL + 1 mL purified water (no glucose)
Procedure: The compounds of Preparation Examples 2 to 5 and 7 were each weighed in an amount of 10 mg in a stoppered test tube, added with methanol (2 mL), dissolved in the methanol, and then further added with a glucose aqueous solution (1 mL) of 10 mg/mL concentration to prepare sample solutions. Separately, the compounds of Preparation Examples 2 to 5 and 7 were each weighed in an amount of 10 mg in a stoppered test tube, added with methanol (2 mL), dissolved in the methanol, and then further added with purified water (1 mL) to prepare control solutions. The prepared sample solutions and the control solutions were stored in an incubator (Minijet Oven, Toyama Sangyo) at 60° C. for 6 days.

[2] = Solubility of crystal forms in an aqueous solvent
[3] = Coloring of solutions of the compound of Preparation Example 7 with additives after storage (Experimental Example 5); parameters: key to Degree of coloring, Sample solution after storage at 60° C. for 6 days / Degree of coloring, Control solution after storage at 60° C. for 6 days: −: No coloring; +: Coloring; ++: Marked coloring; conditions: for Degree of coloring, Sample solution after storage at 60° C. for 6 days: 10 mg compound of Preparation Example 7 in methanol 2 mL + 1 mL of 10 mg/mL aqueous solution of the additive; for Coloring of the solution of the compound of Preparation Example 7 by the influence of the additive: 60° C. for 6 days, methanol/water; for Degree of coloring, Control solution after storage at 60° C. for 6 days: control: 10 mg compound of Preparation Example 7 in methanol 2 mL + 1 mL purified water, no additive
Procedure: The compound obtained according to the method of Preparation Example 7 was weighed in an amount of 10 mg in a stoppered test tube, added with methanol (2 mL) for dissolution, and then further added with a 10 mg/mL aqueous solution of each of additives shown in Table 5 (1 mL) to prepare a sample solution. Separately, the compound obtained according to the method of Preparation Example 7 was weighed in an amount of 10 mg in a stoppered test tube, added with methanol (2 mL) for dissolution, and then further added with purified water (1 mL) to prepare a control solution. The prepared sample solutions and the control solution were stored in an incubator (Minijet Oven, Toyama Sangyo) at 60° C. for 6 days.

| SMILES | Degree of coloring, Sample solution after storage at 60° C. for 6 days [1] | Degree of coloring, Control solution after storage at 60° C. for 6 days [1] | Solubility in an aqueous solvent compared with the type B crystals [2] | Degree of coloring, Sample solution after storage at 60° C. for 6 days [3] | Coloring of the solution of the compound of Preparation Example 7 by the influence of the additive [3] | Degree of coloring, Control solution after storage at 60° C. for 6 days [3] |
| --- | --- | --- | --- | --- | --- | --- |
| Cc1ccc(CCOc2c(N)cc(CCC(=O)O)cc2-c2ccc3ccccc3c2)cc1 [Compound of Preparation Example 2, 3-{3-amino-4-[2-(4-methylphenyl)ethyloxy]-5-(naphthalen-2-yl)phenyl}propionic acid] | + | − |  |  |  |  |
| Nc1cc(CCC(=O)O)cc(-c2ccc3[nH]ccc3c2)c1OCC1CCCC1 [Compound of Preparation Example 3, 3-[3-amino-4-cyclopentylmethyloxy-5-(1H-indol-5-yl)phenyl]propionic acid] | ++ | − |  |  |  |  |
| Cn1ccc2cc(-c3cc(CCC(=O)O)cc(N)c3OCC3CCCC3)ccc21 [Compound of Preparation Example 4, 3-[3-amino-4-cyclopentylmethyloxy-5-(1-methyl-1H-indol-5-yl)phenyl]propionic acid] | ++ | − |  |  |  |  |
| Nc1cc(CCC(=O)O)cc(-c2ccc3[nH]ncc3c2)c1OC1Cc2ccccc2C1 [Compound of Preparation Example 5, 3-[3-amino-4-(indan-2-yloxy)-5-(1H-indazol-5-yl)phenyl]propionic acid] | + | − |  |  |  |  |
| Cn1ncc2cc(-c3cc(CCC(=O)O)cc(N)c3OC3Cc4ccccc4C3)ccc21 [Compound of Preparation Example 7, 3-[3-amino-4-(indan-2-yloxy)-5-(1-methyl-1H-indazol-5-yl)phenyl]propionic acid] | ++ | − | higher |  |  |  |
| OC[C@@H](O)[C@@H](O)[C@H](O)[C@H](O)CO [D-Mannitol] |  |  |  | − | no coloring | − |
| OC[C@@H](O)[C@@H](O)CO [Erythritol] |  |  |  | − | no coloring | − |
| O=C(CO)[C@@H](O)[C@H](O)[C@H](O)CO [Fructose] |  |  |  | + | coloring | − |
| OC[C@H]1O[C@@H](O[C@H]2[C@H](O)[C@@H](O)C(O)O[C@@H]2CO)[C@H](O)[C@@H](O)[C@H]1O (some centres unmarked) [Lactose] |  |  |  | + | coloring | − |
| OC[C@H]1O[C@H](O[C@H]2[C@H](O)[C@@H](O)[C@H](O)O[C@@H]2CO)[C@H](O)[C@@H](O)[C@@H]1O [Maltose] |  |  |  | + | coloring | − |
| OC[C@H]1O[C@@](CO)(O[C@H]2O[C@H](CO)[C@@H](O)[C@H](O)[C@H]2O)[C@@H](O)[C@@H]1O [Sucrose] |  |  |  | − | no coloring | − |
| OC[C@H]1O[C@H](O[C@H]2O[C@H](CO)[C@@H](O)[C@H](O)[C@H]2O)[C@H](O)[C@@H](O)[C@@H]1O [Trehalose] |  |  |  | − | no coloring | − |
| O=C[C@H](O)[C@@H](O)[C@H](O)CO [Xylose] |  |  |  | ++ | coloring | − |
